These results are taken from PMC9322122, “Development of (4-Phenylamino)quinazoline Alkylthiourea Derivatives as Novel NF-κB Inhibitors” (Pharmaceuticals, 2022).

“Also recorded” adds a separate entry of the source.

In one series the test system is dTHP−1 cells. Nature of the series: Cell viability of dTHP-1 cells with or without LPS. As to conditions: in % (unit assumed). In kind it is cell-based, human. The method, then:
The HEK-293 (ATCC Cat# CRL-1573, RRID:CVCL_0045) and human monocytic THP−1 cells (ATCC Cat# TIB-202, RRID:CVCL_0006) were, respectively, cultured in DMEM and RPMI 1640 media supplemented with 10% fetal bovine serum, 2 mM L-glutamine, and 1× Antibiotic-Antimycotic at 37 °C in a humidified incubator with 5% CO2. THP−1 cells were differentiated by 100 nM phorbol-12-myristate-13-acetate (PMA) for 4 h and then rested for 44 h as dTHP−1 cells.
Cells were incubated with the WST-1 reagent (Thermo Fisher Scientific, Waltham, MA, USA) at 37 °C for 2 h. The cell viability was determined by spectrophotometer at 450 nm.
The dTHP−1 cells were treated with indicated compounds for 3 h and then activated with or without 100 ng/mL lipopolysaccharide (LPS; E. coli 0111:B4) for another 24 h. The levels of human IL-6 and TNFα in supernatants were measured by DuoSet® ELISA Development System (R&D systems, Minneapolis, MN, USA) according to the manufacturer’s protocol.

Another series relates to NF-κB p65. Nature of the series: Nuclear translocation of NF-κB p65, immunofluorescent staining. The series is classed as cell-based, human. To be noted: 7.5 µM, 3 h, then LPS 0.1 µg/mL 30 min; dTHP-1 cells. The method, then:
Cells were fixed with 4% formaldehyde and then incubated with 5% goat serum. The intracellular location of NF-κB p65 was determined using primary antibodies against NF-κB p65 (Cell Signaling Technology, Beverly, MA, USA) and FITC-conjugated secondary antibody. Nuclei were counterstained with Hoechst (1 µg/mL). Images were obtained by fluorescent microscopy (OLYMPUS IX 81; Olympus, Tokyo, Japan).
The dTHP−1 cells were incubated with DMSO (0.1%), 19 (7.5 µM), or CAPE (10 µM) in medium for 3 h and then stimulated with or without LPS (0.1 µg/mL) for another 30 min. (A) Nuclear translocation of NF-κB p65 (green) was determined by immunofluorescent microscopy. Hoechst (blue) was used for nuclei staining. (B) The nuclear NF-κB p65-positive cells were quantified. (C) The levels of phospho-NF-κB p65 (S468), IκB, and GAPDH were determined by Western blot. (D) The normalized phospho-NF-κB p65 (S468) and IκB levels were quantified. All data are expressed as mean ± SEM (n = 3); ** p < 0.01 and *** p < 0.001 compared with the DMSO + LPS group.

In a further series the target is T1, TBK1 (Homo sapiens, UniProt Q9UHD2).
T1 construct: purchased Thermo Fisher Scientific (screening service)
Nature of the series: Kinase selectivity profiling (Thermo Fisher). In kind it is biochemical. As to conditions: ATP 100 μM, mean of duplicates. The method, then: (§1) Tabl e S1. Selectivity profiling of compound 19 ag ainst the protein kinases known to regulate the NF-kB pathway ki nase % Inhibiti on at 2 µMa […]
(§2) aScreenings were perf or med as a servi ce at Thermo Fisher Scientific at an ATP concentrat ion of 100 μM. n.i., no inhi biti on. Data represent mean values of duplicat es that differed by less t han 7%.

In the next series the target is T2, PRKCI (PKC iota) (Homo sapiens, UniProt P41743).
T2 construct: purchased Thermo Fisher Scientific (screening service)
Nature of the series: Kinase selectivity profiling (Thermo Fisher). As to conditions: ATP 100 μM, n.i. = no inhibition. In kind it is biochemical. The method, then: as §1, §2

The target of the next series is T3, IRAK1 (Homo sapiens, UniProt P51617).
T3 construct: purchased Thermo Fisher Scientific (screening service)
T3 sequence (P51617 whole entry): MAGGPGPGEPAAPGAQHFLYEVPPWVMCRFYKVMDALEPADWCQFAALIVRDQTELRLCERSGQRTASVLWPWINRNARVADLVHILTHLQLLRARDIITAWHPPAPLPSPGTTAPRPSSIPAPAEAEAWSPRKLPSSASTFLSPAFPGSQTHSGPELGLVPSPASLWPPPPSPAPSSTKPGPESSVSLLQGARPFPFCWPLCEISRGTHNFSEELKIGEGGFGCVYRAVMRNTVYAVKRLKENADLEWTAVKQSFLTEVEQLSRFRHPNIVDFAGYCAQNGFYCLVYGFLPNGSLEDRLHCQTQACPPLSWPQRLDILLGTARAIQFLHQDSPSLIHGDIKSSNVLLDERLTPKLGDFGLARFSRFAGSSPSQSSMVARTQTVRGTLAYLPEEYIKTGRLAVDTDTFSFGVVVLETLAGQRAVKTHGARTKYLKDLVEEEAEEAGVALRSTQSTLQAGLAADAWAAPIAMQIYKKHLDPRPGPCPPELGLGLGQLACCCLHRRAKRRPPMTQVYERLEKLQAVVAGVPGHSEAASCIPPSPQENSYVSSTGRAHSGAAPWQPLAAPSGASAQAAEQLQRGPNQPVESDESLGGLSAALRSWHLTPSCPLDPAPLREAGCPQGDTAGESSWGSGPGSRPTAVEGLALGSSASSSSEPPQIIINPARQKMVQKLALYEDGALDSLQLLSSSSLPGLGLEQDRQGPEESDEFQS
Nature of the series: Kinase selectivity profiling (Thermo Fisher). The series is classed as biochemical. As to conditions: ATP 100 μM, mean of duplicates. The procedure: as §1, §2

The next series has as its target T4, MAP3K14 (NIK) (Homo sapiens, UniProt Q99558).
T4 construct: purchased Thermo Fisher Scientific (screening service)
Nature of the series: Kinase selectivity profiling (Thermo Fisher). The series is classed as biochemical. As to conditions: ATP 100 μM, mean of duplicates. The method, then:
as §1, §2

The next series deals with T5, IRAK4 (Homo sapiens, UniProt Q9NWZ3).
T5 construct: purchased Thermo Fisher Scientific (screening service)
T5 sequence (Q9NWZ3 whole entry): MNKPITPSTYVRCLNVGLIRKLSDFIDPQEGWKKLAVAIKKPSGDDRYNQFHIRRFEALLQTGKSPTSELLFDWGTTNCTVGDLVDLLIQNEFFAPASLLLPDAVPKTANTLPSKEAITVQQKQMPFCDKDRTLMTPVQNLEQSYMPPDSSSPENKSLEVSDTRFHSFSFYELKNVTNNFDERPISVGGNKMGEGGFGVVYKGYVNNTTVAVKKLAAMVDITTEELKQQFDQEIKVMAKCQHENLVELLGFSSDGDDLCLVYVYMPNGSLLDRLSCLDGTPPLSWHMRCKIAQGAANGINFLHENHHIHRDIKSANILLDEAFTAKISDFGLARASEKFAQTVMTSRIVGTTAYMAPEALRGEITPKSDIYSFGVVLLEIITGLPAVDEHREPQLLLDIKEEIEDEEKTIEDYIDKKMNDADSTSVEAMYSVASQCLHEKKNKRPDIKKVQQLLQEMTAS
Nature of the series: Kinase selectivity profiling (Thermo Fisher). To be noted: ATP 100 μM, mean of duplicates. In kind it is biochemical. The method, then:
as §1, §2

The target in a further series is T6, PRKCQ (PKC theta) (Homo sapiens, UniProt Q04759).
T6 construct: purchased Thermo Fisher Scientific (screening service)
T6 sequence (Q04759 whole entry): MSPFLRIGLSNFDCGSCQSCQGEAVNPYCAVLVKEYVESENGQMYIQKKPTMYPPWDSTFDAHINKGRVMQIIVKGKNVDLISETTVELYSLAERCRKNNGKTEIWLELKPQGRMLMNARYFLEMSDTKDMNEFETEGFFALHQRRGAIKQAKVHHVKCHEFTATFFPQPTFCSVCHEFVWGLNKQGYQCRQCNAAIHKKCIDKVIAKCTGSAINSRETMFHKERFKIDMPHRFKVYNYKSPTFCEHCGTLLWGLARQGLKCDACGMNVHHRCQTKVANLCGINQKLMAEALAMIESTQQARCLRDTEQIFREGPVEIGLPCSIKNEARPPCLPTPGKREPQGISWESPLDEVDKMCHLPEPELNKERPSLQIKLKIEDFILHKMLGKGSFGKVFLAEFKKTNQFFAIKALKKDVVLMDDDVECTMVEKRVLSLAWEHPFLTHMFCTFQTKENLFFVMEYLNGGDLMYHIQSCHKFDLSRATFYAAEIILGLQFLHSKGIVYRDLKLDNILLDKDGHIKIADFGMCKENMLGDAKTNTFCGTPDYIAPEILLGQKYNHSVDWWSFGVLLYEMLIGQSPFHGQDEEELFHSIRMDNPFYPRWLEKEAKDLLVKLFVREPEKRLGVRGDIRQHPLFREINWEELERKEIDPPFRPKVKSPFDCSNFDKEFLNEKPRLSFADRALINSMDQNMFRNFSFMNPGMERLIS
Nature of the series: Kinase selectivity profiling (Thermo Fisher). The series is classed as biochemical. As to conditions: ATP 100 μM, n.i. = no inhibition. The method, then:
as §1, §2

The next series has as its target T7, MAPK14 (p38 alpha) (Homo sapiens, UniProt Q16539).
T7 construct: purchased Thermo Fisher Scientific (screening service)
Nature of the series: Kinase selectivity profiling (Thermo Fisher). The series is classed as biochemical. As to conditions: ATP 100 μM, mean of duplicates. The procedure: as §1, §2

For the next series, the target named is T8, PRKCZ (PKC zeta) (Homo sapiens, UniProt Q05513).
T8 construct: purchased Thermo Fisher Scientific (screening service)
T8 sequence (Q05513 whole entry): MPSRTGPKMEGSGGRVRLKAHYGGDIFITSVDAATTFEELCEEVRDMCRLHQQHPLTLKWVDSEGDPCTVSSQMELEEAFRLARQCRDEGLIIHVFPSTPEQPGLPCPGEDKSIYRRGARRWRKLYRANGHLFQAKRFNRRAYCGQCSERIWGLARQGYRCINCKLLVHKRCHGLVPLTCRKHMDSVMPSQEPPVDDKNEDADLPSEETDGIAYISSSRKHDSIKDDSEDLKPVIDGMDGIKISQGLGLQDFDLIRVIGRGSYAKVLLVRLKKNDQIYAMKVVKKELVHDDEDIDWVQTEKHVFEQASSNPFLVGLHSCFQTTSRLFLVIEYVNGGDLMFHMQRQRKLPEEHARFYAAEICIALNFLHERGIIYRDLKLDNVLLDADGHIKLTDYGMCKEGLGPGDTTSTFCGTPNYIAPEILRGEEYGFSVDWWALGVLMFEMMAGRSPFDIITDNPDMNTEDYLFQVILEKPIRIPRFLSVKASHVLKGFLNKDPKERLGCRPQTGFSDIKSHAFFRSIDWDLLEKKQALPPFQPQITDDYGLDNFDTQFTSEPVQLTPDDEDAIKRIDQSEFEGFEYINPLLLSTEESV
Nature of the series: Kinase selectivity profiling (Thermo Fisher). The series is classed as biochemical. As to conditions: ATP 100 μM, mean of duplicates. The method, then:
as §1, §2

The target of a further series is T9, RIPK2 (Homo sapiens, UniProt O43353).
T9 construct: purchased Thermo Fisher Scientific (screening service)
T9 sequence (O43353 whole entry): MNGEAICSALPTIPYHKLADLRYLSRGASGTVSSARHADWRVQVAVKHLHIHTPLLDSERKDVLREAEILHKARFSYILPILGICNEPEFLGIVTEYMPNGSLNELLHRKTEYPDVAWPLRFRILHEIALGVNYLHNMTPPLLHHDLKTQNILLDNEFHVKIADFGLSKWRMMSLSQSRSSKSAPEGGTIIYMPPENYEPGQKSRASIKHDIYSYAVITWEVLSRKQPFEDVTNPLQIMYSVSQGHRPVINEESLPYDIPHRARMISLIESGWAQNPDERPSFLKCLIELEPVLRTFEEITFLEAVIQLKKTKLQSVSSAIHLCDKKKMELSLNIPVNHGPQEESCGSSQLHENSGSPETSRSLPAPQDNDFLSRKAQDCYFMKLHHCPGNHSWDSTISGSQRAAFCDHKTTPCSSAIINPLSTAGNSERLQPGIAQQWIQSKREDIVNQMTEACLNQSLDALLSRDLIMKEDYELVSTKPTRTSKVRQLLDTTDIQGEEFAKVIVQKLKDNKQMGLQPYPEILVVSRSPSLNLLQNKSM
Nature of the series: Kinase selectivity profiling (Thermo Fisher). The series is classed as biochemical. To be noted: ATP 100 μM, mean of duplicates. The method, then:
as §1, §2

The next series addresses T10, GSK3B (GSK3 beta) (Homo sapiens, UniProt P49841).
T10 construct: purchased Thermo Fisher Scientific (screening service)
Nature of the series: Kinase selectivity profiling (Thermo Fisher). In kind it is biochemical. To be noted: ATP 100 μM, mean of duplicates. The method, then: as §1, §2

Another series concerns the target T11, RPS6KA1 (RSK1) (Homo sapiens, UniProt Q15418).
T11 construct: purchased Thermo Fisher Scientific (screening service)
Nature of the series: Kinase selectivity profiling (Thermo Fisher). To be noted: ATP 100 μM, mean of duplicates. The series is classed as biochemical. The procedure: as §1, §2

The target in the next series is T12, IKBKE (IKK epsilon) (Homo sapiens, UniProt Q14164).
T12 construct: purchased Thermo Fisher Scientific (screening service)
T12 sequence (Q14164 whole entry): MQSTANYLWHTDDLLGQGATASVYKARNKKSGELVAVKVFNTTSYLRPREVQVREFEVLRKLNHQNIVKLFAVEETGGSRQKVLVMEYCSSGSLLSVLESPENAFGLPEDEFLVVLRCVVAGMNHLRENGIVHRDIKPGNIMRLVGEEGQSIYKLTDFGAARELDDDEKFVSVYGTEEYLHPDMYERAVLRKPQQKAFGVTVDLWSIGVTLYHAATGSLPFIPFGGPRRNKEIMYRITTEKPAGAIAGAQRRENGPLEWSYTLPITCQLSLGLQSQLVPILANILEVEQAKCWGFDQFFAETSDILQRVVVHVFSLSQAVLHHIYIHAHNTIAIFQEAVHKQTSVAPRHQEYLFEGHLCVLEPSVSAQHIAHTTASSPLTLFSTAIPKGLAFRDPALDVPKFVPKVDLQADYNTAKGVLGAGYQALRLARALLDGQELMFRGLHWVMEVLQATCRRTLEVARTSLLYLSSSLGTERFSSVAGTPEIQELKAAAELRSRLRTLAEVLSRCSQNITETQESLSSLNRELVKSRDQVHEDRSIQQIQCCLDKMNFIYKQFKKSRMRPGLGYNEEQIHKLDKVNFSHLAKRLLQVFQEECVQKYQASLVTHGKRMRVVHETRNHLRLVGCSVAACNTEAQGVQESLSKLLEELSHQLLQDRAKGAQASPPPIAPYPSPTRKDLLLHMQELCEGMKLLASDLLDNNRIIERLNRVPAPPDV
Nature of the series: Kinase selectivity profiling (Thermo Fisher). The series is classed as biochemical. As to conditions: ATP 100 μM, mean of duplicates. The method, then:
as §1, §2

For series [1], the target named is T13, MAP3K7/MAP3K7IP1 (TAK1-TAB1) (Homo sapiens, UniProt O43318).
T13 construct: purchased Thermo Fisher Scientific (screening service)
T13 sequence (O43318 with tags, fused parts or gaps limits assumed): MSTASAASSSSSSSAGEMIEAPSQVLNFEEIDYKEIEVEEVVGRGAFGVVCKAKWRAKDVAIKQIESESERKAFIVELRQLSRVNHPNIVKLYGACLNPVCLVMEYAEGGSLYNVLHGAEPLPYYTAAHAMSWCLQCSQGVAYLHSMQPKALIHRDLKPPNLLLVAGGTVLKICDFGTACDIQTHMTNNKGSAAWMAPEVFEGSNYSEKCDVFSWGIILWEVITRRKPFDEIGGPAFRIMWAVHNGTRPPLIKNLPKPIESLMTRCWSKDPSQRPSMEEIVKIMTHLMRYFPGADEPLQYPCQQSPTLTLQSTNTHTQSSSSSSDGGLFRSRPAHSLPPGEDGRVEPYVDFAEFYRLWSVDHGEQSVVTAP
Nature of the series: Kinase selectivity profiling (Thermo Fisher). To be noted: ATP 100 μM, mean of duplicates. The series is classed as biochemical. The method, then:
as §1, §2

The next series has as its target T14, MAPK3 (ERK1) (Homo sapiens, UniProt P27361).
T14 construct: purchased Thermo Fisher Scientific (screening service)
Nature of the series: Kinase selectivity profiling (Thermo Fisher). In kind it is biochemical. As to conditions: ATP 100 μM, mean of duplicates. The method, then: as §1, §2

The target in a further series is T15, CHUK (IKK alpha) (Homo sapiens, UniProt O15111).
T15 construct: purchased Thermo Fisher Scientific (screening service)
Nature of the series: Kinase selectivity profiling (Thermo Fisher). The series is classed as biochemical. To be noted: ATP 100 μM, mean of duplicates. The procedure:
as §1, §2

A further series has as its target T16, IKBKB (IKK beta) (Homo sapiens, UniProt O14920).
T16 construct: purchased Thermo Fisher Scientific (screening service)
Nature of the series: Kinase selectivity profiling (Thermo Fisher). In kind it is biochemical. As to conditions: ATP 100 μM, mean of duplicates. The procedure:
as §1, §2

T16 sequence (O14920 whole entry): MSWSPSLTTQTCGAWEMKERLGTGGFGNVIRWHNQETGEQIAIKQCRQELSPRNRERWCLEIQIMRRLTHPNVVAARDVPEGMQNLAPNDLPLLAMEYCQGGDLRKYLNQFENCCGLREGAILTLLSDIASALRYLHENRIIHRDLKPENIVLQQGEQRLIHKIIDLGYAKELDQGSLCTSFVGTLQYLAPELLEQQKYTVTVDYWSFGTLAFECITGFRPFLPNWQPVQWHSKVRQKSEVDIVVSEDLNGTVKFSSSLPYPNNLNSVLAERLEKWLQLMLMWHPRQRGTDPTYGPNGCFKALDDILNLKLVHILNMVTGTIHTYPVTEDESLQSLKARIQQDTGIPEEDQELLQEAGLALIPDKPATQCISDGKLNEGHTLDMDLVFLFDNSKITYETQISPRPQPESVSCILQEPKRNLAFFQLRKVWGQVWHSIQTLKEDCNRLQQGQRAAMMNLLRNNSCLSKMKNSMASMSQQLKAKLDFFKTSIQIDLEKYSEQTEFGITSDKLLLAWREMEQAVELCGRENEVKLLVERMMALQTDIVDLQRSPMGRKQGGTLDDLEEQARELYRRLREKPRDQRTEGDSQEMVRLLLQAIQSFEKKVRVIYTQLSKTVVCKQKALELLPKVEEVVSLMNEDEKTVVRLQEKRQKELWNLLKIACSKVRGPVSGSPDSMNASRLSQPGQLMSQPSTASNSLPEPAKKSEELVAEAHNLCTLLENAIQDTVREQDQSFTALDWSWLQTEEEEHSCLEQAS

Take `S=C(Nc1ccc2ncnc(Nc3cccc(Cl)c3)c2c1)NC1CCCC1` [Compound 19, 1-(4-((3-Chlorophenyl)amino)quinazolin-6-yl)-3-cyclopentylthiourea]: the “Cell viability of dTHP-1 cells, 5 μM, LPS” value with dTHP−1 cells (5 μM (so in the source), LPS 100 ng/mL for 24 h) amounted to 4.9 ± 0.38. Besides, in the series with dTHP−1 cells (5 μM (so in the source), no LPS), the “Cell viability of dTHP-1 cells, 5 μM, without LPS” value was 30.0 ± 1.3. The “Cell viability of dTHP-1 cells, 7.5 μM, without LPS” value in the series on dTHP−1 cells (7.5 μM, no LPS) worked out at 60.3 ± 0.85. In the series on NF-κB p65, the “LPS-induced nuclear translocation of NF-κB p65” value is “inhibits the LPS-induced nuclear translocation of NF-κB p65; also recorded: clearly inhibited the nuclear translocation of NF-κB”. The inhibition at 2 µM came out at 8% against TBK1; 2% on IRAK1; 9% against MAP3K14 (NIK); 5% against IRAK4; 4% on MAPK14 (p38 alpha); 3% against PRKCZ (PKC zeta). Besides, the inhibition at 2 µM is 29% on RIPK2; 4% on GSK3B (GSK3 beta); 1% against RPS6KA1 (RSK1); 3% at IKBKE (IKK epsilon); 3% in series [1]; 2% on MAPK3 (ERK1). For the same molecule, the inhibition at 2 µM is 6% on CHUK (IKK alpha) and 3% at IKBKB (IKK beta). For the same molecule, the “% Inhibition at 2 µM, PRKCI (PKC iota)” value on PRKCI (PKC iota) is “n.i”. Besides, the “% Inhibition at 2 µM, PRKCQ (PKC theta)” value at PRKCQ (PKC theta) is “n.i”.

As a reminder, the inhibition is the relative decrease from the control value, in per cent. Low readings indicate a weak effect, high ones a strong effect.
